Measurements as given in US7034035B2, “Fungicidal mono-, bi-, and tri-cycloheteroalkyl amides and their compositions, methods of use and preparation” (priority 1999, dated 2006).
Like-named read-outs stand apart in the source and are kept apart here.

Key:
[1] = system: Phytophthora infestans—PHYTIN; experiment: whole plant or invertebrate; assay type: in vivo; conditions: for pest or weed control at 100 ppm: Phytophthora, in Solanum lycopersicum, 24 h, read-out: PHYTIN in vivo 1 Day Protectant; for PHYTIN in vivo 1 Day Protectant: tomato plants sprayed at 100 ppm, inoculated after 24 hours, control vs untreated plants
Erysiphe graminis—ERYSGT = experiment: Powdery Mildew of Wheat, in vivo whole plant, 24 Hour Protectant; conditions: for pest or weed control at 100 ppm: Erysiphe, in Triticum aestivum, 24 h, read-out: ERYSGT in vivo 1 Day Protectant; for ERYSGT in vivo 1 Day Protectant: inoculated after 24 hours
[2] = system: Puccinia recondita—PUCCRT; experiment: Brown Rust of Wheat, in vivo whole plant, 24 Hour Protectant; conditions: inoculated after 24 hours; for pest or weed control at 100 ppm: Puccinia, read-out: PUCCRT in vivo 1 Day Protectant
[3] = system: Leptosphaeria nodorum—LEPTNO; experiment: Glume Blotch of Wheat, in vivo whole plant, 24 Hour Protectant; conditions: for pest or weed control at 100 ppm: Leptosphaeria, 24 h, read-out: LEPTNO in vivo 1 Day Protectant
Septoria tritici—SEPTTR = experiment: Leaf Blotch of Wheat, in vivo whole plant, 24 Hour Protectant; conditions: inoculated after 24 hours; for pest or weed control at 100 ppm: Zymoseptoria tritici, read-out: SEPTTR in vivo 1 Day Protectant
[4] = system: Mycosphaerella graminicola (Septoria tritici—SEPTTR); experiment: Inhibition of in vitro fungal growth, SEPTTR; assay type: cell-based
Ustilago maydis (USTIMA) = experiment: microbe, parasite or virus in culture; assay type: cell-based
[5] = system: Stagonospora nodorum (Leptosphaeria nodorum—LEPTNO); experiment: Inhibition of in vitro fungal growth, LEPTNO; assay type: cell-based
[6] = system: Rhizoctonia solani (RHIZSO); experiment: microbe, parasite or virus in culture; assay type: cell-based
[7] = wheat plants sprayed at 100 ppm, control vs untreated plants
[8] = wheat plants sprayed at 100 ppm, inoculated after 24 hours, control vs untreated plants
[9] = wheat (cultivar Yuma), sprayed at 100 ppm, control of fungal infection vs untreated plants
[10] = wheat (cultivar Yuma), sprayed at 100 ppm, inoculated after 24 hours, control of fungal infection vs untreated plants
[11] = wheat (cultivar Monon), sprayed at 100 ppm, control of fungal infection vs untreated plants

For `COc1ccnc(C(=O)NC2COC(=O)[C@H](Cc3ccccc3)[C@@H](OC(=O)C(C)C)[C@H](C)OC2=O)c1O` (some centres unmarked) [Compound 475], the pest or weed control at 100 ppm [1] was under 25%, the pest or weed control at 100 ppm (Erysiphe graminis—ERYSGT) was under 25% and the pest or weed control at 100 ppm [2, 7] was 25 to 74%. The pest or weed control at 100 ppm [3, 8] was 75 to 100% and the pest or weed control at 100 ppm (Septoria tritici—SEPTTR; [7]) was 25 to 74%.

`COC(=O)C(COC(=O)C(CO[Si](C)(C)C(C)(C)C)Cc1ccccc1)NC(=O)c1nccc(OC)c1O` (centres unmarked) [Compound 350] gave a pest or weed control at 100 ppm [1] of under 25%, a pest or weed control at 100 ppm (Erysiphe graminis—ERYSGT) of under 25% and a pest or weed control at 100 ppm [2, 9] of 75 to 100%. The pest or weed control at 100 ppm [3, 10] was 75 to 100% and the pest or weed control at 100 ppm (Septoria tritici—SEPTTR; [9]) was under 25%.

`COc1ccnc(C(=O)N[C@H]2COC(=O)[C@H](Cc3ccccc3)[C@@H](OC(=O)Cc3ccccc3)[C@H](C)OC2=O)c1O` [Compound 395] was tested, and the “ERYSGT in vivo 1 Day Protectant” value (Erysiphe graminis—ERYSGT; [11]) was “− (<25% control of fungal infection)”, the “PUCCRT in vivo 1 Day Protectant” value [2, 9] was “+ (25-74% control of fungal infection)” and the “LEPTNO in vivo 1 Day Protectant” value [3, 10] was “+ (25-74% control of fungal infection)”. For the same compound, the “SEPTTR in vivo 1 Day Protectant” value (Septoria tritici—SEPTTR; [9]) was “+ (25-74% control of fungal infection)”.

Compound `COc1ccnc(C(=O)N[C@H]2COC(=O)[C@H](Cc3ccccc3)[C@@H](OCC(C)C)[C@H](C)OC2=O)c1O` [Compound 384] has a pest or weed control at 100 ppm (Erysiphe graminis—ERYSGT) of 75 to 100% and a pest or weed control at 100 ppm [3, 10] of 75 to 100%.

In the case of `CCCC[C@H]1C(=O)O[C@H](C)C(NC(=O)c2cccc(NC(=O)c3nccc(OC)c3O)c2O)C(=O)O[C@@H](C)[C@@H]1OC(=O)CC(C)C` (some centres unmarked) [Compound 473], the “ERYSGT in vivo 1 Day Protectant” value (Erysiphe graminis—ERYSGT; [7]) is reported as “− (<25% control of fungal infection)”, the “PUCCRT in vivo 1 Day Protectant” value [2, 7] is reported as “+ (25-74% control of fungal infection)” and the pest or weed control at 100 ppm [3] is reported as 75 to 100%. For the same compound, the “SEPTTR in vivo 1 Day Protectant” value (Septoria tritici—SEPTTR; [7]) was “+ (25-74% control of fungal infection)”.

`COc1ccnc(C(=O)N[C@@H]2C[C@@H](O[Si](C)(C)C(C)(C)C)O[C@@H](C)[C@@H]2OCc2ccccc2)c1O` [Compound 327] was tested, and the “SEPTTR in vitro Growth Inhibition” value [4] was “− (key: +: at least 80% growth inhibition; −: less than 80% growth inhibition)”, the “USTIMA in vitro Growth Inhibition” value (Ustilago maydis (USTIMA)) was “− (key: +: at least 80% growth inhibition; −: less than 80% growth inhibition)” and the “LEPTNO in vitro Growth Inhibition” value [5] was “− (key: +: at least 80% growth inhibition; −: less than 80% growth inhibition)”. The pest or weed control at 100 ppm (Septoria tritici—SEPTTR; [9]) was 75 to 100% and the “RHIZSO in vitro Growth Inhibition” value [6] was “− (key: +: at least 80% growth inhibition; −: less than 80% growth inhibition)”.

With `COc1ccnc(C(=O)NC2CCN(Cc3cccc(C(F)(F)F)c3)CC2)c1O.O=C(O)/C=C\C(=O)O.O=C(O)/C=C\C(=O)O` [Compound 307] the “SEPTTR in vitro Growth Inhibition” value [4] was “− (key: +: at least 80% growth inhibition; −: less than 80% growth inhibition)”, the “USTIMA in vitro Growth Inhibition” value (Ustilago maydis (USTIMA)) was “− (key: +: at least 80% growth inhibition; −: less than 80% growth inhibition)” and the “ERYSGT in vivo 1 Day Protectant” value (Erysiphe graminis—ERYSGT; [11]) was “+ (25-74% control of fungal infection)”. The “PUCCRT in vivo 1 Day Protectant” value [2, 9] was “− (<25% control of fungal infection)”, the “LEPTNO in vitro Growth Inhibition” value [5] was “− (key: +: at least 80% growth inhibition; −: less than 80% growth inhibition)” and the “LEPTNO in vivo 1 Day Protectant” value [3, 10] was “− (<25% control of fungal infection)”. The “RHIZSO in vitro Growth Inhibition” value [6] was “− (key: +: at least 80% growth inhibition; −: less than 80% growth inhibition)”.

In the case of `COc1ccnc(C(=O)N[C@H]2COC(=O)[C@H](CC3CCCC3)[C@@H](OC(=O)C(C)C)[C@H](C)OC2=O)c1O` [Compound 402], the pest or weed control at 100 ppm (Erysiphe graminis—ERYSGT) is reported as 75 to 100% and the pest or weed control at 100 ppm [3, 10] is reported as 75 to 100%.

For `COc1cccc(Oc2ccc(NC(=O)c3nccc(OC)c3O)cc2)c1` [Compound 435], the pest or weed control at 100 ppm (Erysiphe graminis—ERYSGT) was under 25%, the “PUCCRT in vivo 1 Day Protectant” value [2, 9] was “− (<25% control of fungal infection)” and the “LEPTNO in vivo 1 Day Protectant” value [3, 10] was “+ (25-74% control of fungal infection)”. The “SEPTTR in vivo 1 Day Protectant” value (Septoria tritici—SEPTTR; [9]) was “− (<25% control of fungal infection)”.

For `O=C(Nc1cccc(Oc2cccc(C(F)(F)F)c2)c1)c1nc(Br)ccc1O` [Compound 496], the “PHYTIN in vivo 1 Day Protectant” value [1] was “− (<25% control of fungal infection)”, the pest or weed control at 100 ppm (Erysiphe graminis—ERYSGT) was under 25% and the “PUCCRT in vivo 1 Day Protectant” value [2, 7] was “+ (25-74% control of fungal infection)”. The “LEPTNO in vivo 1 Day Protectant” value [3, 8] was “− (<25% control of fungal infection)” and the “SEPTTR in vivo 1 Day Protectant” value (Septoria tritici—SEPTTR; [7]) was “+ (25-74% control of fungal infection)”.

`O=C(Nc1cccc(Oc2cccc(C(F)(F)F)c2)c1)c1nc(Br)ccc1O` [Compound 497] was tested, and the “PHYTIN in vivo 1 Day Protectant” value [1] was “− (<25% control of fungal infection)”, the “ERYSGT in vivo 1 Day Protectant” value (Erysiphe graminis—ERYSGT; [7]) was “− (<25% control of fungal infection)” and the “PUCCRT in vivo 1 Day Protectant” value [2, 7] was “+ (25-74% control of fungal infection)”. For the same compound, the “LEPTNO in vivo 1 Day Protectant” value [3, 8] was “+ (25-74% control of fungal infection)” and the “SEPTTR in vivo 1 Day Protectant” value (Septoria tritici—SEPTTR; [7]) was “+ (25-74% control of fungal infection)”.

Compound `CCC(C)C(=O)O[C@H]1[C@H](C)OC(=O)[C@@H](NC(=O)c2nccc(OC)c2O)COC(=O)[C@@H]1Cc1ccccc1` (some centres unmarked) [Compound 389] has a pest or weed control at 100 ppm [1] of under 25%, a pest or weed control at 100 ppm (Erysiphe graminis—ERYSGT) of under 25% and a pest or weed control at 100 ppm [2, 9] of 25 to 74%. For the same compound, the pest or weed control at 100 ppm [3, 10] was 75 to 100% and the pest or weed control at 100 ppm (Septoria tritici—SEPTTR; [9]) was 25 to 74%.

`COc1ccnc(C(=O)N[C@H]2COC(=O)[C@H](Cc3ccccc3)[C@@H](OC(=O)CC(C)C)[C@H](C)OC2=O)c1O` [Compound 390] showed a pest or weed control at 100 ppm [1] of under 25%, a pest or weed control at 100 ppm (Erysiphe graminis—ERYSGT) of under 25% and a pest or weed control at 100 ppm [2, 9] of 25 to 74%. It also gave a pest or weed control at 100 ppm [3, 10] of 75 to 100% and a pest or weed control at 100 ppm (Septoria tritici—SEPTTR; [9]) of 25 to 74%.

With `COc1ccnc(C(=O)N[C@@H]2C[C@@H](O[Si](C)(C)C(C)(C)C)O[C@@H](C)[C@@H]2OC)c1O` [Compound 326] the “SEPTTR in vitro Growth Inhibition” value [4] was “− (key: +: at least 80% growth inhibition; −: less than 80% growth inhibition)”, the “USTIMA in vitro Growth Inhibition” value (Ustilago maydis (USTIMA)) was “− (key: +: at least 80% growth inhibition; −: less than 80% growth inhibition)” and the “LEPTNO in vitro Growth Inhibition” value [5] was “− (key: +: at least 80% growth inhibition; −: less than 80% growth inhibition)”. The pest or weed control at 100 ppm (Septoria tritici—SEPTTR; [9]) was 75 to 100% and the “RHIZSO in vitro Growth Inhibition” value [6] was “− (key: +: at least 80% growth inhibition; −: less than 80% growth inhibition)”.

In the case of `COc1ccnc(C(=O)N[C@H]2C[C@@H](O[Si](C)(C)C(C)(C)C)O[C@@H](C)[C@@H]2OCc2ccccc2)c1O` [Compound 328], the “SEPTTR in vitro Growth Inhibition” value [4] is reported as “− (key: +: at least 80% growth inhibition; −: less than 80% growth inhibition)”, the “USTIMA in vitro Growth Inhibition” value (Ustilago maydis (USTIMA)) is reported as “− (key: +: at least 80% growth inhibition; −: less than 80% growth inhibition)” and the “LEPTNO in vitro Growth Inhibition” value [5] is reported as “− (key: +: at least 80% growth inhibition; −: less than 80% growth inhibition)”. The “RHIZSO in vitro Growth Inhibition” value [6] was “− (key: +: at least 80% growth inhibition; −: less than 80% growth inhibition)”.

With `CC(C)C(=O)O[C@H]1[C@H](C)OC(=O)[C@@H](NC(=O)c2nsnc2O)COC(=O)[C@@H]1Cc1ccccc1` [Compound 553] the pest or weed control at 100 ppm [1] was 75 to 100% and the pest or weed control at 100 ppm [3, 8] was 75 to 100%.

`CCC1(C)CC(NC(=O)c2nccc(OC)c2O)CC(C)(C)C1` (centres unmarked) [Compound 251] was tested, and the “USTIMA in vitro Growth Inhibition” value (Ustilago maydis (USTIMA)) was “− (key: +: at least 80% growth inhibition; −: less than 80% growth inhibition)”, the pest or weed control at 100 ppm [2, 9] was 75 to 100% and the pest or weed control at 100 ppm [3, 10] was 75 to 100%. For the same compound, the pest or weed control at 100 ppm (Septoria tritici—SEPTTR; [9]) was 75 to 100% and the “RHIZSO in vitro Growth Inhibition” value [6] was “− (key: +: at least 80% growth inhibition; −: less than 80% growth inhibition)”.
